Article PMC6160999, “Pharmacokinetics, Tissue Distribution and Excretion of a Novel Diuretic (PU-48) in Rats” (Pharmaceutics, 2018)
Read-outs that look alike come from different tables or passages of the source.

Experiments:
[1] = Tissue distribution after single oral PU-48 SNEDDS; type: in vivo; settings: rat, oral PU-48 SNEDDS 12 mg/kg
Method: Internal standard (IS, 25 μL) was added to 50 μL plasma, urine, or bile sample in a clean tube, placed into a water bath at 37 °C, and dried under a gentle stream of nitrogen gas, followed by the addition of 0.5 mL of ethyl acetate for liquid-liquid extraction. The mixture was shaken by a vortex mixer for 3 min, and then centrifuged at 8000 rpm (4200× g) for 10 min at 4 °C. After centrifugation, the upper organic phase was transferred into a clean centrifuge tube and then dried it again. The combined upper organic phases were evaporated to dryness at 37 °C under a gentle stream of nitrogen gas. The residue was reconstituted with 50 μL acetonitrile and then centrifuged at 13,000 rpm (12,000× g) for 10 min at 4 °C, the upper liquid was transferred into sample vials. Finally, 5 μL aliquots were injected into the LC–MS/MS system to analyze. Each tissue samples were homogenized in normal saline (0.9% NaCl, 1:3, w/v), and then centrifuged at 10,000× g for 10 min to get the supernatant. Other steps were the same as plasma sample preparation.
Thirty rats were divided randomly into five groups and the rats were given single orally administration of PU-48 (12 mg/kg, 1.2 mg/mL in the SNEDDS formulation). […] After the final time point, the rats were sacrificed and thirteen tissues (liver, spleen, lung, kidney, heart, muscle, colon, intestine, stomach, bladder, testicle, adipose, brain) were collected. Tissues samples were rinsed with ice-cold 0.9% normal saline and blotted dry with filter paper. All the samples were weighted and stored at −20 °C until analysis.

plasma protein = assay: Plasma protein binding by equilibrium dialysis, rat plasma; type: in vitro ADME; settings: for Concentration in Buffer (post-dialysis) / Concentration in Plasma (post-dialysis) / Protein-Binding Ratio: rat plasma, n=5; for Concentration in Buffer (post-dialysis) / Concentration in Plasma (post-dialysis): 37 °C 24 h
Method: The concentration of PU-48 prototype in biological sample (feces and plasma protein binding analysis) was determined using a validated high-performance liquid chromatographic (HPLC) method our preliminary experiment (See Supplementary Materials HPLC Analysis and Method Validation). Briefly, the quantitative analysis of PU-48 was performed using a HPLC consistent of model 510 pump with a model 2487 ultraviolet detector, a model Rheodyne 7725 injector, and a column oven. The analytical conditions were as follows—The detection wavelength—293 nm; analytical column—a reversed-phase Acclaim C18 (4.6 mm × 250 mm, 5.0 µm, Dionex, Sunnyvale, CA, USA); column temperature—25 °C; mobile phase—acetonitrile—distilled water at a ratio of 60:40 (v/v); flow rate—1 mL/min. In this study, the methods for the feces samples were evaluated for specificity, linearity, precision, accuracy, and recovery (See Supplementary Materials Tables S4–S6).
The binding ratio of PU-48 to plasma protein was determined by equilibrium dialysis. A volume of 1 mL of plasma with PU-48 (0.25, 1 and 4 µg/mL) was added to a semi-permeable membrane bag (plasma chamber), the bag was place into the other clean tube with 9 mL PBS (buffer chamber). The equilibrium dialysis was performed at 37 °C for 24 h. At the end of dialysis, 500 μL each of post-dialysis samples from the plasma and the buffer chambers were collected and analyzed by HPLC method. The plasma protein binding of PU-48 was calculated from the concentration of PU-48 in PBS (free concentration) and in plasma (free + bound) according to equation: Bound (%) = (Concplasma chamber − Concbuffer chamber)/Concplasma chamber × 100%.

[2] = bladder, read-out: Concentration of PU-48 in bladder
[3] = brain, read-out: Concentration of PU-48 in brain
[4] = colon, read-out: Concentration of PU-48 in colon
[5] = fat, read-out: Concentration of PU-48 in fat
[6] = heart, read-out: Concentration of PU-48 in heart
[7] = intestine, read-out: Concentration of PU-48 in intestine
[8] = kidney, read-out: Concentration of PU-48 in kidney
[9] = liver, read-out: Concentration of PU-48 in liver
[10] = lung, read-out: Concentration of PU-48 in lung
[11] = male, testicle, read-out: Concentration of PU-48 in testicle
[12] = muscle, read-out: Concentration of PU-48 in muscle
[13] = plasma, read-out: Concentration of PU-48 in plasma
[14] = spleen, read-out: Concentration of PU-48 in spleen
[15] = stomach, read-out: Concentration of PU-48 in stomach

COC(=O)c1sc2nc3ccc(OC)cc3cc2c1N [PU-48, Methyl 3-amino-6-methoxythieno [2,3-b] quinoline-2-carboxylate]
concentration at 0.5 h [1, 2]: 258 ± 94.2 ng/g | concentration at 1 h [1, 2]: 368 ± 124 ng/g | concentration at 6 h [1, 2]: 43.4 ± 10.7 ng/g | concentration at 12 h [1, 2]: 6.1 ± 3.2 ng/g | concentration at 24 h [1, 2]: 8.6 ± 6.5 ng/g | concentration at 0.5 h [1, 3]: 111 ± 23.3 ng/g | concentration at 1 h [1, 3]: 68.1 ± 52.7 ng/g | concentration at 6 h [1, 3]: 15.7 ± 19.3 ng/g | concentration at 12 h [1, 3]: 1.7 ± 1.5 ng/g | concentration at 0.5 h [1, 4]: 90.4 ± 30 ng/g | concentration at 1 h [1, 4]: 172 ± 89.5 ng/g | concentration at 6 h [1, 4]: 35.2 ± 14.7 ng/g | concentration at 12 h [1, 4]: 28.6 ± 21.7 ng/g | concentration at 24 h [1, 4]: 14.1 ± 5.6 ng/g | concentration at 0.5 h [1, 5]: 481 ± 398 ng/g | concentration at 1 h [1, 5]: 99.3 ± 26.9 ng/g | concentration at 6 h [1, 5]: 52.3 ± 43.2 ng/g | concentration at 12 h [1, 5]: 2.7 ± 1.9 ng/g | concentration at 24 h [1, 5]: 0.7 ± 0.6 ng/g | concentration at 0.5 h [1, 6]: 251 ± 78.4 ng/g | concentration at 1 h [1, 6]: 125 ± 31 ng/g | concentration at 6 h [1, 6]: 11.3 ± 11.2 ng/g | concentration at 24 h [1, 6]: 0.5 ng/g | concentration at 0.5 h [1, 7]: 655 ± 89.3 ng/g | concentration at 1 h [1, 7]: 777 ± 277 ng/g | concentration at 6 h [1, 7]: 209 ± 166 ng/g | concentration at 12 h [1, 7]: 45.4 ± 18.9 ng/g | concentration at 24 h [1, 7]: 9 ± 4.7 ng/g | concentration at 0.5 h [1, 8]: 416 ± 138 ng/g | concentration at 1 h [1, 8]: 297 ± 241 ng/g | concentration at 6 h [1, 8]: 44.5 ± 33.9 ng/g | concentration at 12 h [1, 8]: 4.7 ± 1.1 ng/g | concentration at 24 h [1, 8]: 5.3 ± 3.4 ng/g | concentration at 0.5 h [1, 9]: 622 ± 183 ng/g | concentration at 1 h [1, 9]: 534 ± 228 ng/g | concentration at 6 h [1, 9]: 42.7 ± 27.3 ng/g | concentration at 12 h [1, 9]: 13.4 ± 3.1 ng/g | concentration at 24 h [1, 9]: 20.4 ± 12.2 ng/g | concentration at 0.5 h [1, 10]: 231 ± 79.3 ng/g | concentration at 1 h [1, 10]: 174 ± 91.4 ng/g | concentration at 6 h [1, 10]: 7.2 ± 5.7 ng/g | concentration at 12 h [1, 10]: 0.9 ± 0.1 ng/g | concentration at 24 h [1, 10]: 1.3 ± 0.9 ng/g | concentration at 0.5 h [1, 11]: 34.2 ± 21.2 ng/g | concentration at 1 h [1, 11]: 51.7 ± 24.4 ng/g | concentration at 6 h [1, 11]: 9.5 ± 8.5 ng/g | concentration at 12 h [1, 11]: 1.5 ± 0.7 ng/g | concentration at 24 h [1, 11]: 1.4 ± 1.1 ng/g | concentration at 0.5 h [1, 12]: 39.8 ± 28.6 ng/g | concentration at 1 h [1, 12]: 52 ± 25.5 ng/g | concentration at 6 h [1, 12]: 4.5 ± 3.5 ng/g | concentration at 12 h [1, 12]: 2 ± 1.9 ng/g | concentration at 24 h [1, 12]: 1.4 ± 1.5 ng/g | concentration at 0.5 h [1, 13]: 0.277 ± 0.0424 µg/mL | concentration at 1 h [1, 13]: 0.119 ± 0.0635 µg/mL | concentration at 6 h [1, 13]: 0.0168 ± 0.0264 µg/mL | concentration at 12 h [1, 13]: 0.0024 ± 0.0017 µg/mL | concentration at 24 h [1, 13]: 0.0003 ± 0.0001 µg/mL | Peak concentration of PU-48 in brain [1]: 111.1 ± 23.3 ng/mL | Blood brain barrier crossing ([1]; inferred from brain concentration): could cross the blood brain barrier (BBB) | Tmax ([1]; thirteen tissues, read-out: Peak time (Tmax) of PU-48 in analyzed tissues): 30 to 60 min | concentration at 0.5 h [1, 14]: 266 ± 120 ng/g | concentration at 1 h [1, 14]: 161 ± 64 ng/g | concentration at 6 h [1, 14]: 15.2 ± 12.9 ng/g | concentration at 12 h [1, 14]: 3.8 ± 5.7 ng/g | concentration at 24 h [1, 14]: 9.9 ± 12 ng/g | concentration at 0.5 h [1, 15]: 887 ± 235 ng/g | concentration at 1 h [1, 15]: 2020 ± 822 ng/g | concentration at 6 h [1, 15]: 509 ± 160 ng/g | concentration at 12 h [1, 15]: 104 ± 28.4 ng/g | concentration at 24 h [1, 15]: 7 ± 3.1 ng/g | concentration at 24 h ([1]; tissues except liver and colon, read-out: Concentrations of PU-48 in tissues except liver and colon): < 10 ng/g | Concentration in Buffer (post-dialysis) (plasma protein; added 0.25 µg/mL): 0.012 ± 0.003 µg/mL | Concentration in Plasma (post-dialysis) (plasma protein; added 0.25 µg/mL): 0.127 ± 0.007 µg/mL | Protein-Binding Ratio (plasma protein; added 0.25 µg/mL): 90.70 ± 2.18% | Concentration in Buffer (post-dialysis) (plasma protein; added 1 µg/mL): 0.047 ± 0.002 µg/mL | Concentration in Plasma (post-dialysis) (plasma protein; added 1 µg/mL): 0.524 ± 0.032 µg/mL | Protein-Binding Ratio (plasma protein; added 1 µg/mL): 91.06 ± 0.78% | Concentration in Buffer (post-dialysis) (plasma protein; added 4 µg/mL): 0.194 ± 0.019 µg/mL | Concentration in Plasma (post-dialysis) (plasma protein; added 4 µg/mL): 2.128 ± 0.166 µg/mL | Protein-Binding Ratio (plasma protein; added 4 µg/mL): 90.83 ± 1.17% | fraction unbound at 24 h (plasma protein; rat, plasma, rats, overall statement): < 0.1
